In article PMC5358997, “Fixed-dose combination orally disintegrating tablets to treat cardiovascular disease: formulation, in vitro characterization and physiologically based pharmacokinetic modeling to assess bioavailability” (Drug Design, Development and Therapy, 2017):

Tests used:
[1] = Dissolution testing of ODTs in biorelevant media (USP 2 paddle), f1/f2 comparison; assay type: physicochemical; conditions: for Similarity factor f2 / Difference factor f1: single (reference) vs FDC (test) dissolution profile; for Similarity factor f2: similar if above 50; for Difference factor f1: similar if below 15; for >85% dissolution ≤15 min: single and FDC formulations; for Results of f1 and f2 testing: similar if f1 below 15 and f2 above 50
Experimental: API dissolution from ODTs in 900 mL biorelevant media was tested in both FaSSIF and FeSSIF at pH 6.5 and 5, respectively, and maintained at 37°C. An ERWEKA DT 600 USP 2 paddle apparatus (Heusenstamm, Germany) was used at a paddle speed of 50 rpm.[27] A total of 5 mL of sample was taken over 2 h, replacing with 5 mL fresh media to simulate sink conditions. API dissolution was measured using HPLC and corrected for percent dose dissolved.
Differences between dissolution profiles of APIs in single dose (reference) and combination (test) were assessed using f1 and f2 difference and similarity factor testing using the equations:[34] f1={[∑t=1n|Rt−Tt|]/[∑t=1nRt]}*100f2=50*log{[1+(1/n)∑t=1n(Rt−Tt)^2]^−0.5*100} where Rt and Tt are the percent drug-dissolved value at each time point for the reference and test product, respectively, and n is the number of time points.

in vitro = conditions: human; for efflux ratio at 2 h: Caco-2, pH 7.4, Efflux ratio; for Papp A→B at 2 h: Caco-2, pH 7.4, Papp A–B; for Papp B→A at 2 h: Caco-2, pH 7.4, Papp B–A
Experimental: Media were changed every 2–3 days and transwells cultured at 37°C, 5% CO2 for 21 days, after which transport studies were performed. […] Samples of 100 μL were removed from the A side and 200 μL from the B side at time points over 2 h, replacing with fresh prewarmed media (37°C) to mimic sink conditions. […] Cultures were maintained at 37°C and 5% CO2 throughout the experiment.

LDL-C = conditions: hypercholesterolemic patients; cited from earlier work
[2] = amlodipine (20 μg/mL) and atorvastatin (40 μg/mL) in combination, pH 7.4, n=3, mean ± SD
[3] = drug alone (amlodipine 20 μg/mL, atorvastatin 40 μg/mL), pH 7.4 both compartments, n=3, mean ± SD

| Dissolution within 15 min ([1]; FaSSIF, both single and FDC ODT) | Similarity factor f2 ([1]; FaSSIF) | Difference factor f1 ([1]; FaSSIF) | >85% dissolution ≤15 min ([1]; FaSSIF) | Results of f1 and f2 testing ([1]; FaSSIF) | Dissolution within 15 min ([1]; FeSSIF, either single or FDC ODT) [%] | Similarity factor f2 ([1]; FeSSIF) | Difference factor f1 ([1]; FeSSIF) | >85% dissolution ≤15 min ([1]; FeSSIF) | Results of f1 and f2 testing ([1]; FeSSIF) | efflux ratio at 2 h (in vitro; amlodipine and atorvastatin in combination, pH 7.4) | efflux ratio at 2 h (in vitro; drug alone, pH 7.4 both compartments) | Papp A→B at 2 h (in vitro; [2]) [×10⁻⁶ cm/s] | Papp A→B at 2 h (in vitro; [3]) [×10⁻⁶ cm/s] | Papp B→A at 2 h (in vitro; [2]) [×10⁻⁶ cm/s] | Papp B→A at 2 h (in vitro; [3]) [×10⁻⁶ cm/s] | Compound | Reduction of LDL-C (LDL-C) |
| --- | --- | --- | --- | --- | --- | --- | --- | --- | --- | --- | --- | --- | --- | --- | --- | --- | --- |
| exceeded 85% | 70.80 | 5.08 | Yes | Pass | ≤ 85 | 45.40 | 15.92 | No | Fail | 0.96 | 1.14 | 5.4 ± 0.48 | 8.34 ± 0.32 | 5.18 ± 0.29 | 9.51 ± 1.7 | CCOC(=O)C1=C(COCCN)NC(C)=C(C(=O)OC)C1c1ccccc1Cl (centres unmarked) [Amlodipine, Amlodipine besylate] |  |
|  | 53.81 | 14.16 |  | Pass |  | 54.59 | 13.24 |  | Pass |  |  |  |  |  |  | CC(C)c1c(C(=O)Nc2ccccc2)c(-c2ccccc2)c(-c2ccc(F)cc2)n1CC[C@@H](O)C[C@@H](O)CC(=O)O [Atorvastatin, atorvastatin calcium] | 41%–61% |
